Reference: publication PMC7067379, “Mapping the S1 and S1’ subsites of cysteine proteases with new dipeptidyl nitrile inhibitors as trypanocidal agents” (PLoS Neglected Tropical Diseases, 2020)
Where two headings read alike, the source gives them in different places.

How the values were obtained:
[1] = biological target: cathepsin S (CatS) (Homo sapiens, UniProt P25774); experiment: Cathepsin S enzyme inhibition; assay type: biochemical; conditions: SD lower than 15%; read-out: pKi CatS (converted)
Procedure: (§1) Enzyme inhibition studies for Cz and LmCPB were performed as previously described for Cz. The experimental procedures are described in the Supporting Information (see chapter S3). Cathepsins B, L, S were assayed as reported.

[2] = biological target: cathepsin B (CatB) (Homo sapiens, UniProt P07858); experiment: Cathepsin B enzyme inhibition; assay type: biochemical; conditions: for Ki: SD lower than 15%, read-out: pKi CatB (converted)
[3] = biological target: T1, Human recombinant cathepsin K (Homo sapiens, UniProt P43235); experiment: Cathepsin K assay; assay type: biochemical; conditions: for Ki: SD lower than 15%, read-out: pKi CatK (converted)
T1 sequence (P43235 115-329): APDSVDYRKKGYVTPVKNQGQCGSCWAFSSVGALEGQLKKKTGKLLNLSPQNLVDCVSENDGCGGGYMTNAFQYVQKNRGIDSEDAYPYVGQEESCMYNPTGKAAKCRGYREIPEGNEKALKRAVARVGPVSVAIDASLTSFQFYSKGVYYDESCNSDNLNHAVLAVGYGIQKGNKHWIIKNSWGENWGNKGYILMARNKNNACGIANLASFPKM
Procedure: Human recombinant cathepsin K was assayed on a FLUOSTAR Optima plate reader at 25 °C with an excitation wavelength of 360 nm and an emission wavelength of 440 nm on a 96 well plate. The enzyme solution (23 μg/mL in 50 mM sodium acetate pH 5.5, 50 mM NaCl, 0.5 mM EDTA, 5 mM DTT) was diluted 1:100 with assay buffer (100 mM sodium citrate buffer pH 5.0, 100 mM NaCl, 1 mM EDTA, 0.01% CHAPS) containing 5 mM DTT and was then incubated at 37 °C for 30 min for activation. A 1.5 mM stock solution of the substrate Z-Leu-Arg-AMC was prepared in DMSO. […] The assay was performed with a final concentration of cathepsin K of 1.73 ng/mL. Stock solutions of inhibitors were prepared in DMSO. The final DMSO concentration was 2% (4 μL). Into a well containing 194.5 μL assay buffer, 0.8 μL of the fluorogenic substrate, DMSO and inhibitor solution (3.2 μL) were added. Upon addition of cathepsin K (1.5 μL), the measurement was started and followed for 20 min.

[4] = tested on: T. cruzi Tulahuen LacZ strain, intracellular amastigote forms; experiment: In vitro trypanocidal activity on intracellular amastigote forms (Tulahuen strain); assay type: cell-based, Trypanosoma cruzi; conditions: for EC50: Trypanosoma cruzi, TULAHUEN; for SI (selective index): from EC50 (T. cruzi) and CC50 (LLCMK2)
Procedure: Cells were evaluated in 96-well plates. Cells from the LLCMK2 lineage were plated at a concentration of 5x10^4 cells mL^-1. Trypomastigote forms of the Tulahuen LacZ strain were added at a concentration of 5×10^5 parasites mL^-1 and placed in the incubator at 37°C with 5% CO2 for 24 h. After the incubation period, the trypomastigote forms present were removed by successive washes with PBS, remaining only as intracellular amastigote forms. Compounds were added at different concentrations (1.95 μM to 250 μM serial dilutions) and incubated for 72 h. At the end of this period, the substrate CPRG (chlorophenol red β-D-galactopyranoside, 400 μM in 0.3% Triton X-100, pH 7.4) was added. […] Benznidazole was used as a positive control in the same concentrations as the substances, and DMSO as a negative control. Compounds were solubilized in DMSO. The selectivity index (SI) was calculated using the formula: […]. All statistical analyses were done with the program GraphPad Prism v.5.

[5] = biological target: recombinant cruzain (Cz) (Trypanosoma cruzi, UniProt P25779); experiment: Cruzain enzyme inhibition; assay type: biochemical; conditions: for difference in pKi, Cz: sign not given, direction by cell colour or wording
Procedure: as §1

[6] = biological target: cathepsin L (CatL) (Homo sapiens, UniProt P07711); experiment: Cathepsin L enzyme inhibition; assay type: biochemical; conditions: for Ki: SD lower than 15%, read-out: pKi CatL (converted); for difference in pKi, CatL: relative to compound 11, sign not given, direction by cell colour or wording
[7] = Mammalian cytotoxicity assay (MTT); assay type: cell-based; conditions: rhesus monkey, LLCMK2 cells;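 note: Read-out is absorbance at 570 nm of formazan taken up in DMSO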
Procedure: LLCMK2 cells were cultured in 96-well plates at a concentration of 5 x 10^4 cells/ml. After 48 h, the plates were washed twice with PBS and 200 μL RPMI medium was added with serial dilutions of the compounds and benznidazole (1.95 μM to 250 μM) in triplicate. After 72 h at 37 °C, the cytotoxic activity of the compounds was determined by the classical MTT [3- (4,5-dimethylthiazol-2-yl) -2,5-diphenyltetrazolium bromide] method. Briefly, 50 μL MTT dissolved in PBS (2.0 mg mL^-1) was added to each well and the plates were incubated for 4 h at 37 °C. The formed formazan crystals were dissolved with DMSO (50 μL/well) and the absorbance of the samples was measured by spectrophotometer at 570 nm after 30 min.

[8] = biological target: Leishmania mexicana CPB (LmCPB) (Leishmania mexicana, UniProt P36400); experiment: LmCPB enzyme inhibition; assay type: biochemical; conditions: for difference in pKi, LmCPB: sign not given, direction by cell colour or wording
Procedure: as §1

[9] = 10 μM, replicates = 2, n.i. = no inhibition observed at 10 μM
[10] = SD lower than 15%, read-out: pKi Cz (converted)
[11] = S1 Table, maximum concentration used 250 µM, read-out: CC50
[12] = SD lower than 15%, read-out: pKi LmCPB (converted)
[13] = S1 Table, maximum concentration used 250 µM, read-out: EC50 T. cruzi
[14] = T. cruzi amastigote form, S1 Table, read-out: pEC50 (converted)
[15] = LLCMK2, 72 h, MTT, Table 2, read-out: CC50 cytotoxicity
[16] = 72 h, amastigote, Tulahuen strain, 72 h, Table 2, read-out: EC50 trypanocidal activity

cathepsin S (CatS), sequence (P25774 115-331): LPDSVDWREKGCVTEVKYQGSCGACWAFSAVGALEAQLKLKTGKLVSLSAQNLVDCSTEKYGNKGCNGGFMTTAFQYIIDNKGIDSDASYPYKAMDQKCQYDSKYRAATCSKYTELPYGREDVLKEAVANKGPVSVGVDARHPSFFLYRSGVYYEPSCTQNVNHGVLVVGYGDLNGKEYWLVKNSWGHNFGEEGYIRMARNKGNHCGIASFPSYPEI
recombinant cruzain (Cz), sequence (P25779 123-337): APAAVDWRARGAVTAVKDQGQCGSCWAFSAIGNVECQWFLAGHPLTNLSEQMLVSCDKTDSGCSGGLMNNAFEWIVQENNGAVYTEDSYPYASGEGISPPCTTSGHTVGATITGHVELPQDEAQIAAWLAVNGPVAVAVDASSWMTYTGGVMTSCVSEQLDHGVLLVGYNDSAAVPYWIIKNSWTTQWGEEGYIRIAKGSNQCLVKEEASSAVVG
Leishmania mexicana CPB (LmCPB), sequence (P36400 126-443): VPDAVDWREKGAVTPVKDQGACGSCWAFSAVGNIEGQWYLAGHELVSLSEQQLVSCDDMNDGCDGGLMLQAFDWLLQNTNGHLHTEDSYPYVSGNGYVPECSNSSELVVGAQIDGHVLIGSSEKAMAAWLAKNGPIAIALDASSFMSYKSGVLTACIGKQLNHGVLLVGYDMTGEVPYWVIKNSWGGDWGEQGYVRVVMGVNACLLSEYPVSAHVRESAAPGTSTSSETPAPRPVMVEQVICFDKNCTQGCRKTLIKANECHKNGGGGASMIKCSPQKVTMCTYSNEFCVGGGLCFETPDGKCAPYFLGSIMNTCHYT
cathepsin L (CatL), sequence (P07711 114-333): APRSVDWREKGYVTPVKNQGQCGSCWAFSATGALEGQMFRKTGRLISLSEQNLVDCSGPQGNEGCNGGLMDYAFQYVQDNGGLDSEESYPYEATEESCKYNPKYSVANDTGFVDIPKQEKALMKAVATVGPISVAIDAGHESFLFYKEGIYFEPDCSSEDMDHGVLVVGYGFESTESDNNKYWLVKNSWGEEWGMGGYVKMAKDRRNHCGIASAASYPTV

Structure (SMILES)	Ki [1]	Ki [2]	melting point	Ki [5, 10]	Ki [6]	CC50 at 72 h [7, 11]	Ki [8, 12]	Ki [3]	EC50 [4, 13]	EC50 [4, 14]	SI (selective index) ([4]; Table 2)	CC50 at 72 h [7, 15]	EC50 [4, 16]	other results
N#CC1(NC(=O)[C@H](Cc2c[nH]c3ccccc23)NC(=O)c2ccnc3cc(Cl)ccc23)CC1 [Compound 14, (S)-7-Chloro-N-(1-((1-cyanocyclopropyl)amino)-3-(1H-indol-3-yl)-1-oxopropan-2-yl)quinoline-4-carboxamide]	1 µM	20 µM	196 to 197 °C	0.631 µM	2 µM	> 100 µM	2 µM							remaining activity (%) at 10 μM, CatK [3, 9]: n.i.^c; EC50 ([4]; read-out: EC50 T. cruzi, S1 Table, maximum concentration used 250 µM): > 100 µM
CC(C)C[C@H](NC(=O)c1ccnc2cc(Cl)ccc12)C(=O)NC1(C#N)CC1 [Compound 15, (S)-7-Chloro-N-(1-((1-cyanocyclopropyl)amino)-4-methyl-1-oxopentan-2-yl)quinoline-4-carboxamide]	0.126 µM		169 to 170 °C	0.0158 µM	0.251 µM	> 100 µM	0.0501 µM	0.126 µM	77.3 µM	79.4 µM	1.14	73.6 ± 8.74 µM		remaining activity at 10 µM [2, 9]: 89%; EC50 ([4]; 72 h, read-out: EC50 trypanocidal activity, amastigote, Tulahuen strain, 72 h, Table 2): 64.7 ± 4.32 µM; difference in pKi, CatL [6]: 1.0
N#CC1(NC(=O)[C@H](Cc2ccccc2)NC(=O)c2cccc(OC(=O)c3ccccc3)c2)CC1 [Compound 16, (S)-3-((1-((1-Cyanocyclopropyl)amino)-1-oxo-3-phenylpropan-2-yl)carbamoyl)phenyl benzoate]	0.0501 µM	6.31 µM	185 to 187 °C	0.126 µM	0.501 µM		0.1 µM	0.631 µM		50.1 µM	> 2.1	> 100 µM	47.3 ± 3.26 µM	
CC(C)C[C@H](NC(=O)c1ccc(N)nc1)C(=O)NC1(C#N)CC1 [Compound 17, (S)-6-Amino-N-(1-((1-cyanocyclopropyl)amino)-4-methyl-1-oxopentan-2-yl)nicotinamide]	0.0251 µM		100 to 101 °C	0.0794 µM	0.316 µM	> 100 µM	0.158 µM	0.01 µM	> 100 µM	> 100 µM				remaining activity (%) at 10 μM, CatB [2, 9]: n.i.^c
CC(C)C[C@H](NC(=O)c1cnc2[nH]ccc2c1)C(=O)NC1(C#N)CC1 [Compound 18, (S)-N-(1-((1-Cyanocyclopropyl)amino)-4-methyl-1-oxopentan-2-yl)-1H-pyrrolo[2,3-b]pyridine-5-carboxamide]	0.0501 µM	31.6 µM	79 to 80 °C		0.0794 µM	> 100 µM		0.002 µM	> 100 µM	> 100 µM				Ki [5]: 0.02 µM; difference in pKi, Cz ([5]; relative to compound 11): -0.7; Ki [8]: 0.0631 µM; difference in pKi, LmCPB ([8]; relative to compound 11): -0.5
C[C@@H](O)[C@H](NC(=O)c1cc(C(C)(C)C)nn1C)C(=O)NC1(C#N)CC1 [Compound 19, 3-(tert-Butyl)-N-((2S,3R)-1-((1-cyanocyclopropyl)amino)-3-hydroxy-1-oxobutan-2-yl)-1-methyl-1H-pyrazole-5-carboxamide]	10 µM	25.1 µM	201 to 202 °C		6.31 µM	> 100 µM		3.16 µM	> 100 µM	> 100 µM				remaining activity at 10 µM ([5]; 10 μM, replicates = 2): 51%; difference in pKi, CatL [6]: 0.5; remaining activity at 10 µM ([8]; 10 μM, replicates = 2): 67%
Cn1nc(C(C)(C)C)cc1C(=O)N[C@@H](Cc1ccccc1)C(=O)N[C@H](C#N)Cc1ccccc1 [Compound 50, 3-(tert-Butyl)-N-((S)-1-(((S)-1-cyano-2-phenylethyl)amino)-1-oxo-3-phenylpropan-2-yl)-1-methyl-1H-pyrazole-5-carboxamide]	0.0501 µM	31.6 µM	89 to 90 °C	0.02 µM	0.00316 µM		0.0158 µM	0.501 µM	63.5 µM	63.1 µM	1.31	83.1 ± 6.85 µM	63.3 ± 5.74 µM	difference in pKi, CatB ([2]; relative to compound 9, sign not given, direction by cell colour or wording): 0.3; difference in pKi, Cz ([5]; relative to compound 9): 0.4; difference in pKi, LmCPB ([8]; relative to compound 9): 0.7
Cn1nc(C(C)(C)C)cc1C(=O)N[C@@H](Cc1ccccc1)C(=O)N[C@@H](C#N)Cc1ccccc1 [Compound 51, 3-(tert-Butyl)-N-((S)-1-(((R)-1-cyano-2-phenylethyl)amino)-1-oxo-3-phenylpropan-2-yl)-1-methyl-1H-pyrazole-5-carboxamide]	1.26 µM		98 to 99 °C	0.501 µM	0.126 µM	42.3 µM	0.794 µM	2.51 µM		7.94 µM	4.9	42.3 ± 3.94 µM	8.6 ± 0.53 µM	remaining activity at 10 µM [2, 9]: 94%
CC(C)C[C@@H](C#N)NC(=O)[C@H](Cc1ccccc1)NC(=O)c1cc(C(C)(C)C)nn1C [Compound 52, 3-(tert-Butyl)-N-((S)-1-(((S)-1-cyano-3-methylbutyl)amino)-1-oxo-3-phenylpropan-2-yl)-1-methyl-1H-pyrazole-5-carboxamide]	0.126 µM	7.94 µM	81 to 82 °C	0.0316 µM	0.00501 µM		0.0398 µM	0.2 µM		3.98 µM		97.9 ± 6.52 µM	4.1 ± 0.47 µM	fold increase in trypanocidal potency ([4]; compared with compound 9): 17.5 fold
Cn1nc(C(C)(C)C)cc1C(=O)N[C@@H](Cc1ccccc1)C(=O)N[C@H](C#N)Cc1cccc(Cl)c1 [Compound 54, 3-(tert-Butyl)-N-((S)-1-(((S)-2-(3-chlorophenyl)-1-cyanoethyl)amino)-1-oxo-3-phenylpropan-2-yl)-1-methyl-1H-pyrazole-5-carboxamide]	0.0794 µM	12.6 µM	132 to 133 °C		0.00501 µM			0.501 µM		15.8 µM	2.83	44.7 ± 5.24 µM	15.8 ± 1.43 µM	Ki [5]: 0.0316 µM; Ki [8]: 0.0316 µM
C[C@@H](OCc1ccccc1)[C@@H](C#N)NC(=O)[C@H](Cc1ccccc1)NC(=O)c1cc(C(C)(C)C)nn1C [Compound 56, N-((S)-1-(((1R,2R)-2-(Benzyloxy)-1-cyanopropyl)amino)-1-oxo-3-phenylpropan-2-yl)-3-(tert-butyl)-1-methyl-1H-pyrazole-5-carboxamide]	1 µM	6.31 µM	115 to 116 °C	0.501 µM	0.1 µM	> 100 µM	0.316 µM	2 µM	> 100 µM	> 100 µM				EC50 ([4]; amastigote forms of T. cruzi (Tuhaluen strain), Figs 12-14, unit inferred): > 100 µM; difference in pKi, Cz ([5]; relative to compound 9): -1.0
